Ends that are not written are not given here.
Columns and labels:
[1] = biological target: cAMP-dependent protein kinase; details: cited from earlier work
[2] = tested on: dissociated RPE; test: Rescue of RPE after single-cell dissociation on day 14; format: cell-based, human; details: 10 μM for the first 3 days after passage
Description: The cells were mechanically enriched by scraping away cells with non-RPE morphology. Subsequently, the remaining RPE were digested using TrypLE Express (Invitrogen) for ˜5 minutes at 37° C. The cells were passed through a 30-μm single-cell strainer and seeded onto Matrigel-coated tissue culture plastic, Transwell membranes (Corning Enterprises, Corning, N.Y., http://www.corning.com), or CC2-treated chambered slides. Enriched cells were cultured in DMEM-high glucose with 1% fetal bovine serum (FBS), GlutaMAX, and sodium pyruvate (Invitrogen) for 30 days, as described in Ahmado A, Carr A J, Vugler A A et al. Induction of differentiation by pyruvate and DMEM in the human retinal pigment epithelium cell line ARPE-19. Invest Ophthalmol Vis Sci 2011; 52:7148-7159.
Differentiated Cells Can Be Enriched on Day 14 to Homogenous Cultures of Functional RPE. To generate more homogenous populations of RPE, readily visible sheets on day 14 were mechanically isolated, dissociated into single cells, and replated in an RPE medium described in Buchholz D E, Hikita S T, Rowland T J et al. Derivation of functional retinal pigmented epithelium from induced pluripotent stem cells. STEM CELLS 2009; 27:2427-2434, on Matrigel-coated tissue culture plastic, chambered slides, or Transwell inserts. […]

[3] = biological target: PKC; details: cited from earlier work
[4] = biological target: myosin light-chain kinase; details: cited from earlier work
[5] = tested on: early eye field cells; test: qPCR gene expression, RPE specification of early eye field cells, day 10; format: cell-based, human; details: for gene expression of Mitf / expression of Rax: day 10; for gene expression of Mitf: Activin A added days 4-10, SU5402 or VIP days 6-10
Description: (§1) Pluripotent stem cells were passaged directly onto Matrigel (BD Biosciences) in DMEM/F12 with 1×B27, 1×N2, and 1×NEAA (Invitrogen). From days 0 to 2, 50 ng/ml Noggin, 10 ng/ml Dkk1, and 10 ng/ml IGF1 (R&D Systems Inc., Minneapolis, Minn., http://www.rndsystems.com) and in some experiments 10 mM nicotinamide or 5 mM 3-aminobenzamide (Sigma-Aldrich) were added to the base medium. From days 2 to 4, 10 ng/ml Noggin, 10 ng/ml Dkk1, 10 ng/ml IGF1, and 5 ng/ml bFGF and in some experiments 10 mM nicotinamide or 5 mM 3-aminobenzamide were added to the base medium. From days 4 to 6, 10 ng/ml Dkk1 and 10 ng/ml IGF1 and in some experiments 100 ng/ml Activin A (R&D Systems) were added to the base medium. From days 6 to 14, 100 ng/ml Activin A, 10 μM SU5402 (EMD Millipore, Darmstadt, Germany, http://www.emdmillipore.com), and […] VIP (Sigma-Aldrich) were added to the base medium. Control experiments were also performed in base media alone (DMEM/F12, B27, N2, and NEAA).
(§2) Quantitative Real-Time Polymerase Chain Reaction Total RNA of RPE marker genes was isolated using primers based upon the mRNA sequences of such genes. QPCR methods were carried out with the RNeasy Plus Mini Kit (Qiagen, Hilden, Germany, http://www.qiagen.com). cDNA was synthesized from 1 μg of RNA using the iScript cDNA Synthesis Kit (Bio-Rad, Hercules, Calif., http://www.bio-rad.com). Primer pairs were designed to create a 75-200-base pair product (Beacon Design 4.0; Premier Biosoft International, Palo Alto, Calif., http://www.premierbiosoft.com). Quantitative real-time polymerase chain reaction (PCR) was carried out on a Bio-Rad MyIQ Single Color Real-Time PCR Detection System using the SYBR Green method, as described in Woo T H, Patel B K, Cinco M et al. Identification of Leptospira biflexa by real-time homogeneous detection of rapid cycle PCR product. J Microbiol Methods 1999; 35:23-30. Triplicate 20-μl reactions were run in a 96-well plate with half of the cDNA synthesis reaction used per plate. Primer specificity was confirmed by melting temperature analysis, gel electrophoresis, and direct sequencing (Iowa State DNA Facility, Ames, Iowa). The data were normalized to the geometric mean of the “housekeeping” genes: glyceraldehyde phosphate dehydrogenase (GAPDH), hydroxymethylbilane synthase (HMBS), and glucose phosphate isomerase (GPI), as described in Radeke M J, Peterson K E, Johnson L V et al. Disease susceptibility of the human macula: Differential gene transcription in the retinal pigmented epithelium/choroid. Exp Eye Res 2007; 85:366-380.

[6] = tested on: early eye field cells; test: Pigmentation of differentiating cultures; format: cell-based, human; details: cultures containing VIP, between days 10 and 14
Description: as §1

[7] = tested on: pluripotent stem cells; test: qPCR gene expression, early eye field differentiation, day 4; format: cell-based, human; details: for expression of early neural/early eye field marker Lhx2 / expression of early neural/early eye field marker Rax / expression of the pluripotency genes Oct4 and Nanog: day 4, added to IGF1, Noggin, Dkk1 and bFGF, compared with controls; for expression of the pluripotency genes Oct4 and Nanog: 10 mM nicotinamide or 5 mM 3-aminobenzamide
Description: as §1, §2

[8] = tested on: pluripotent stem cells; test: Cell morphology during early eye field differentiation; format: cell-based, human; details: compared with control cells
Description: as §1

[9] = Activin A added days 4-10, SU5402 days 6-10

Molecule | gene expression of Mitf [5] | expression of Rax [5, 9] | expression of early neural/early eye field marker Lhx2 [7] | expression of early neural/early eye field marker Rax [7] | expression of the pluripotency genes Oct4 and Nanog [7] | further results
C[C@@H](N)[C@H]1CC[C@H](C(=O)Nc2ccncc2)CC1 [Y-27632] | – | – | – | – | – | Ki [1]: 25 µM; RPE survival and maturation after single-cell dissociation [2]: […]; Ki [3]: […]; Ki [4]: > 250 µM
Cc1c[nH]c(/C=C2\C(=O)Nc3ccccc32)c1CCC(=O)O [SU5402] | little effect | little effect | – | – | – | expression of Rax ([5]; SU5402 in combination with Activin A): further decreased
VIP: vasoactive intestinal peptide, a cyclic AMP upregulator (HSDAVFTDNYTRLRKQMAVKKYLNSILN; ends and bridges not checked; UniProt P01282 125-152, looked up) | significantly increased | – | – | – | – | pigmentation [6]: increased; expression of RPE marker gene PEDF ([5]; VIP added days 6-10): significantly increased; expression of RPE marker gene tyrosinase ([5]; VIP added days 6-10): significantly increased
NC(=O)c1cccc(N)c1 [3-aminobenzamide] | – | – | significantly increased | significantly increased | reduced | ability to recapitulate the effects of nicotinamide ([7]; day 4, overall): partially recapitulate the effects of nicotinamide
NC(=O)c1cccnc1 [nicotinamide] | – | – | increased | the increase in Rax was not significant | significantly decreased | Pax6(−5a) expression ([7]; day 4, nicotinamide against control conditions): similar; cell morphology [8]: rapidly adopted a radial/rosette morphology
Activin A: Recombinant Activin A, media additive (protein, UniProt P08476 311-426, looked up) Inhibin beta A chain: GLECDGKVNICCKKQFFVSFKDIGWNDWIIAPSGYHANYCEGECPSHIAGTSGSSLSFHSTVINHYRMRGHSPFANLKSCCVPTKLRPMSMLYYDDGQNIIKKDIQNMIVEECGCS | little effect | significantly decreased | – | – | – | –
